Assay results: patent US11147295B2, “Sweetener and flavor compositions, methods of making and methods of use thereof” (EPC Natural Products Co., Ltd., priority 2018, dated 2021)

Key:
[1] = Sensory evaluation of the samples prepared in Example 50 (Example 52); format: in vivo, human; parameters: key to Intensity of Smell: “+” for slight; “++” for moderate; “+++” for very strong
Description: The reaction partner (amino acid, carbohydrate source) were dissolved/suspended in the reaction solvent and transferred into a glass beaker filled with sand pre-heated for at least 30 minutes at the reaction temperature in a drying oven. After the planned reaction time, the vials were transferred into ice water. After cooling to room temperature, sensory analysis and analytical characterization was performed.
For evaluation of the taste profile, the samples were tested by a panel of four people. 1 trained taster tasted independently the samples first. The taster was asked to describe the taste profile and score 0-5 according to the increasing sugar likeness, bitterness, aftertaste and lingering taste profiles. The first taster was allowed to re-taste, and then make notes for the sensory attributes perceived. Afterwards, another 3 tasters tasted and the attributes were noted and discussed openly to find a suitable description. In case that more than 1 taster disagreed with the results, the tasting was repeated. In some sensory test results (above), the taste rating was expressed by “+”, which means the intensity of the factors is shown by three levels. “+” for slight, “++” for moderate and “+++” for very strong.

[2] = Sensory analysis of Maillard reaction samples: odor/smell, color, taste (Examples 55-62); format: in vivo, human; settings: Example 56, negative controls (no carbohydrate source); 10 ml glycerin/water=9:1, 100° C., 40 minutes
Description: All reactions were performed in 10 ml glycerin/water=9:1. The reaction partners were dissolved in water and then warmed glycerin (60° C.) was added. The reactions were performed at 100° C. for 40 minutes in a drying oven (sealed vials were positioned in pre-heated sand to increase heat transfer).
All samples were assessed at 22° C. after the Maillard reaction was stopped by placing the sealed vials in an ice bath. After 20 minutes in the ice bath the sealed vials were put in a water bath set to 22° C.
The odor/smell was assessed independently by 3 persons; the final description was agreed after discussion. […] The taste was assessed independently by 3 persons either in the original samples or after appropriate dilution to achieve relevant concentrations of sugars and steviol-glycosides (i.e. 5-9% SE); the final description was agreed after discussion.

[3] = as above; format: in vivo, human
[4] = DPPH radical-scavenging activity (Example 65); format: physicochemical; settings: iron-III reduction and DPPH radical scavenging, samples kept at 100° C. 0, 2.5 or 5.0 hours
Description: 1 mg 1,1-Diphenyl-2-picrylhydrazyl radical (DPPH)/ml ethanol, dilution to assay concentration were prepared in ethanol (40 μg/mL); Calibration samples were prepared with Ascorbic acid in a concentration of 0-10 μg/mL; as a negative control sample, water was used.
Samples in aqueous solution were used as such or diluted with water.
A 0.1 ml sample (or calibration standard) was mixed with 3.9 ml solution of DPPH (100 μMolar) and reacted while protected from light at room temperature for 30 min. Absorbance was determined at 517 nm against ethanol.
10 mM of amino acid and/or 10 mM sugar were dissolved in 10 ml 0.1 mM KH2PO4-buffer, pH=7.8.
The samples were kept at 100° C. in sealed glass vials (Pyrex 15 ml with screw caps) for 0 (before reaction), 2.5 or 5.0 hours. Thereafter the samples were transferred to an ice water bath and cooled down to room temperature. These samples were diluted 1:10 and used for the test assay for anti-oxidant potential.

[5] = the sweeteness depends on the tested concentration compared with sucrose; cited from earlier work
[6] = Table 52.2, 1 ml water + 9 ml Glycerin, 0.67 h, 100° C. (Table 50.2)
[7] = Table 52.5, 1 ml water + 9 ml Glycerin, 2.0 h, 120° C. (Table 50.5)
[8] = Table 52.3, 1 ml water + 9 ml Glycerin, 0.67 h, 100° C. (Table 50.3)
[9] = Table 52.6, Glycerin, 10 ml, 100° C., 40 min (Table 50.6)
[10] = Table 52.7, Glycerin, 10 ml, 1 h, 120° C. (Table 50.7)
[11] = Example 57, before reaction, 10 ml KH2PO4, pH 7.8
[12] = Table 52.1, 1 ml water + 9 ml Glycerin, 1 h, 100° C. (Table 50.1)
[13] = Example 57, after reaction, 10 ml KH2PO4, pH 7.8, 2.5 h, 120° C.

Compound: C[C@H](N)C(=O)O [0.1 mMol Ala]
- Smell [1, 6]: Agar
- Taste [1, 6]: sweet

Compound: O=C[C@H](O)[C@H]1OC(=O)[C@@H](O)[C@H]1O [0.1 mMol GlucLac]
- Intensity of Smell [1, 7]: +++
- Smell [1, 7]: Burnt sugar
- Taste [1, 7]: Bitter

Compound: NCCCC[C@H](N)C(=O)O [0.1 mMol Lys]
- Smell [1, 8]: Popcorn
- Taste [1, 8]: Sweet

Compound: N[C@@H](Cc1ccccc1)C(=O)O [0.1 mMol Phe]
- Taste [1, 6]: sweet
- Intensity of Smell [1, 7]: +
- Smell [1, 7]: Caramel, burnt
- Taste [1, 7]: sweet

Compound: C=C1C[C@@]23CC[C@H]4[C@@](C)(CCC[C@@]4(C)C(=O)O[C@@H]4O[C@H](CO)[C@@H](O)[C@H](O)[C@H]4O)[C@@H]2CC[C@]1(O[C@@H]1O[C@H](CO)[C@@H](O)[C@H](O[C@@H]2O[C@H](CO)[C@@H](O)[C@H](O)[C@H]2O)[C@H]1O[C@@H]1O[C@H](CO)[C@@H](O)[C@H](O)[C@H]1O)C3 [0.05 mMol Reb-A]
- Smell [1, 6]: neutral/unpleasant
- Taste [1, 6]: sweet

Compound: N[C@@H](Cc1ccccc1)C(=O)O [3.3 mMol Phe]
- Smell ([1]; Table 52.6, Glycerin, 10 ml, 100° C., 5 min (Table 50.6)): Slightly bloomy
- Smell ([1]; Table 52.6, Glycerin, 10 ml, 100° C., 10 min (Table 50.6)): flowery/bloomy
- Smell ([1]; Table 52.6, Glycerin, 10 ml, 100° C., 20 min (Table 50.6)): flowery/bloomy
- Smell [1, 9]: flowery/bloomy
- Smell [1, 10]: flowery/bloomy

Compound: C[C@H](N)C(=O)O [8.91 mg Ala]
- Smell [2]: Neutral, slightly Agar
- Taste [2]: Slightly sweet

Compound: OC[C@H]1OC(O)[C@H](O)[C@@H](O)[C@@H]1O (stereo partly shown) [9 mg Glucose]
- Smell [3, 11]: neutral
- Taste [3, 11]: Sweet

Compound: OC[C@H]1OC(O)[C@H](O)[C@@H](O)[C@@H]1O (stereo partly shown) [10 mMol Glu]
- Smell [1, 9]: Slightly Caramel
- Smell [1, 10]: Slightly Caramel

Compound: N[C@@H](CO)C(=O)O [10.5 mg Ser]
- Smell [2]: Lotus flower
- Taste [2]: Slightly sweet

Compound: O=C(O)[C@@H]1CCCN1 [11.5 mg Pro]
- Taste [2]: Slightly sweet

Compound: C[C@@H](O)[C@H](N)C(=O)O [11.91 mg Thr]
- Smell [2]: Vanilla, butter
- Taste [2]: Slightly sweet

Compound: N[C@@H](CS)C(=O)O [12.1 mg Cys]
- Smell [2]: Unpleasant (sulfur)
- Taste [2]: Slightly sweet

Compound: CC[C@H](C)[C@H](N)C(=O)O [13.11 mg Ile]
- Smell [2]: Coffee
- Taste [2]: Slightly sweet

Compound: NCCCC[C@H](N)C(=O)O [14.7 mg Lys]
- Smell [2]: Popcorn
- Taste [2]: Slightly sweet

Compound: CSCC[C@H](N)C(=O)O [14.9 mg Met]
- Smell [2]: Sulfuric
- Taste [2]: Slightly sweet

Compound: N[C@@H](Cc1ccccc1)C(=O)O [16.5 mg Phe]
- Smell [2]: Bloomy, caramel
- Taste [2]: Slightly sweet
- Smell [3, 11]: neutral
- Taste [3, 11]: No taste
- Smell ([3]; Example 58, before reaction, 10 ml KH2PO4, pH 7.8): Neutral
- Taste ([3]; Example 58, before reaction, after dilution 1:20): No taste

Compound: N[C@@H](Cc1ccc(O)cc1)C(=O)O [18.1 mg Tyr]
- Smell [2]: neutral
- Taste [2]: Slightly sweet

Compound: N[C@@H](Cc1c[nH]c2ccccc12)C(=O)O [20.42 mg Try]
- Smell [2]: Unpleasant (fecal)
- Taste [2]: Slightly sweet

Compound: N[C@@H](CCC(=O)O)C(=O)O [167 mMol Glu]
- Smell [1, 12]: caramel
- Taste [1, 12]: Sweet

Compound: O=C[C@H](O)[C@@H](O)[C@H](O)[C@H](O)C(=O)O [Glucuronic Acid]
- Smell [3, 13]: burnt bread
- Taste [3, 13]: Bitter

Compound: O=C1O[C@@H]2[C@@H](O)[C@H](O)O[C@@H]2C1O (stereo partly shown) [Glucuronolactone]
- Smell [3, 13]: Burnt sugar
- Taste [3, 13]: Bitter

Compound: N[C@@H](Cc1ccccc1)C(=O)O [Phe 60 mMol]
- Smell [1, 12]: flowery/bloomy-caramel
- Taste [1, 12]: Sweet

Compound: N[C@H](Cc1ccccc1)C(=O)O [Phe]
- Smell [3, 13]: Caramel, burnt
- Taste [3, 13]: sweet

Compound: C=C1C[C@@]23CC[C@H]4[C@@](C)(CCC[C@@]4(C)C(=O)O[C@@H]4O[C@H](CO)[C@@H](O)[C@H](O)[C@H]4O)[C@@H]2CC[C@]1(O[C@@H]1O[C@H](CO)[C@@H](O)[C@H](O[C@@H]2O[C@H](CO)[C@@H](O)[C@H](O)[C@H]2O)[C@H]1O[C@@H]1O[C@H](CO)[C@@H](O)[C@H](O)[C@H]1O)C3 [Reb-A, Rebaudioside A]
- anti-oxidant properties [4]: substantial anti-oxidant properties

Compound: O=S(=O)([O-])NC1CCCCC1.[Na+] [sodium cyclamate]
- times sweeter than sucrose [5]: about 30 times

Compound: OC[C@H]1O[C@H](O[C@]2(CCl)O[C@H](CCl)[C@@H](O)[C@@H]2O)[C@H](O)[C@@H](O)[C@H]1Cl [sucralose]
- times sweeter than sucrose [5]: about 600 times

Compound: Thaumatin
- times sweeter than sucrose [5]: about 2000 times
